Measured values as given in PMC4822888, “Subtype-Selective Small Molecule Inhibitors Reveal a Fundamental Role for Nav1.7 in Nociceptor Electrogenesis, Axonal Conduction and Presynaptic Release” (PLoS ONE, 2016).
Several values for one entry are separate records, joined by “and”; a condition that tells them apart may be missing. Identical values can stand only once.

Columns and labels:
[1] = biological target: Serotonin 5-HT transporter (Homo sapiens, UniProt P31645); assay: Off target activity panel; format: binding; settings: read-out: Inhibition at test concentration (%)
Serotonin 5-HT transporter, sequence (P31645 whole entry): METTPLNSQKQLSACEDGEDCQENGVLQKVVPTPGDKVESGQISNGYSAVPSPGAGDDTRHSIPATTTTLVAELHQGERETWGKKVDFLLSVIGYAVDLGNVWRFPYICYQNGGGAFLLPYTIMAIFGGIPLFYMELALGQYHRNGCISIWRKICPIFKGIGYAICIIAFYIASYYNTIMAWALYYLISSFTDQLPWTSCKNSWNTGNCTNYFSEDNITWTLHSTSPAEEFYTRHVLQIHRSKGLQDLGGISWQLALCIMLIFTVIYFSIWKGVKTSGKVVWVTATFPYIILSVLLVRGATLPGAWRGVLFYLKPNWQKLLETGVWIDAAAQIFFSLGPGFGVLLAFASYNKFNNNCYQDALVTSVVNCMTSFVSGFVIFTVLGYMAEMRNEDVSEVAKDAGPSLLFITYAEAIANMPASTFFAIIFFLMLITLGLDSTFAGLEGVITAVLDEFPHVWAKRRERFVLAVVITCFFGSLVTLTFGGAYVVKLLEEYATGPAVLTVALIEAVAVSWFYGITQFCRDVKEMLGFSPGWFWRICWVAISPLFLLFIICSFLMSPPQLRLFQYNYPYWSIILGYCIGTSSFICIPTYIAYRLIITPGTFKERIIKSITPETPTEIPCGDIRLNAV

Histamine H1 receptor = Histamine H1 receptor (Homo sapiens, UniProt P35367); assay: Off target activity panel; format: binding; settings: read-out: Inhibition at test concentration (%)
[2] = system: Cloride channel (GABA-gated); assay: Off target activity panel; format: binding
Dopamine D1 receptor = Dopamine D1 receptor (Homo sapiens, UniProt P21728); assay: Off target activity panel; format: binding; settings: read-out: Inhibition at test concentration (%)
Dopamine D1 receptor, sequence (P21728 whole entry): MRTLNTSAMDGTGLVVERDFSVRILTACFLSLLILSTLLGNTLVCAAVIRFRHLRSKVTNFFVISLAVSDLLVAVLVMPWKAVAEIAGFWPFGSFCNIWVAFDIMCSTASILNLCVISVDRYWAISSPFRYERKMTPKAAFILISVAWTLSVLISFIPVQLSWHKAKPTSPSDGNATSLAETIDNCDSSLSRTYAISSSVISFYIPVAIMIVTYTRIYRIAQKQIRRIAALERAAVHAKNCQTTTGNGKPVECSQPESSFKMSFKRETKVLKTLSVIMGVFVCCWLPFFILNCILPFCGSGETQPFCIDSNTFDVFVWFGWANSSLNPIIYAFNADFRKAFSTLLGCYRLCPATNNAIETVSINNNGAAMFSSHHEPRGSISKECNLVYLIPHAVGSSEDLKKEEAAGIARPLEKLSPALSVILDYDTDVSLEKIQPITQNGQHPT

Serotonin 5-HT1B = Serotonin 5-HT1B (Homo sapiens, UniProt P28222); assay: Off target activity panel; format: binding; settings: read-out: Inhibition at test concentration (%)
hERG potassium channels = hERG potassium channels (Homo sapiens, UniProt Q12809)
[3] = biological target: Angiotensin converting enzyme (Homo sapiens, UniProt P12821); assay: Off target activity panel; format: biochemical; settings: read-out: Inhibition at test concentration (%)
Serotonin 5-HT2C [4] = biological target: T1, Serotonin 5-HT2C (Homo sapiens, UniProt P28335); assay: Off target activity panel (first 5-HT2C line); format: binding; settings: read-out: Inhibition at test concentration (%)
T1 sequence (P28335 33-458): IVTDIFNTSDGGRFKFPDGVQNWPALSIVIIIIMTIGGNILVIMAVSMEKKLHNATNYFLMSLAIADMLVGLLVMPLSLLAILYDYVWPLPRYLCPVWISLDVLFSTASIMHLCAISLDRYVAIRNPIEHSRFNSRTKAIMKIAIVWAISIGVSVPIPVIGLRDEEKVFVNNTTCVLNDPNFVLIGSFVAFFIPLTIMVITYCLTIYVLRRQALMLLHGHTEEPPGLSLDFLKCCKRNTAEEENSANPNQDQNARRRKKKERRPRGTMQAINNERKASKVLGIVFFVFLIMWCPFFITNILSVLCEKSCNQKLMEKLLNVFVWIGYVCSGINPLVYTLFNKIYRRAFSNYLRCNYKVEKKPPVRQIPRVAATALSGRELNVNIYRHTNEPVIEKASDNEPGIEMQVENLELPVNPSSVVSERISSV

[5] = system: human DRG neurons (hDRG neurons); assay: Voltage clamp of TTX-S current in human DRG neurons; format: cell-based
Mu opiod receptor = Mu opiod receptor (Homo sapiens, UniProt P35372); assay: Off target activity panel; format: binding; settings: read-out: Inhibition at test concentration (%)
Mu opiod receptor, sequence (P35372 whole entry): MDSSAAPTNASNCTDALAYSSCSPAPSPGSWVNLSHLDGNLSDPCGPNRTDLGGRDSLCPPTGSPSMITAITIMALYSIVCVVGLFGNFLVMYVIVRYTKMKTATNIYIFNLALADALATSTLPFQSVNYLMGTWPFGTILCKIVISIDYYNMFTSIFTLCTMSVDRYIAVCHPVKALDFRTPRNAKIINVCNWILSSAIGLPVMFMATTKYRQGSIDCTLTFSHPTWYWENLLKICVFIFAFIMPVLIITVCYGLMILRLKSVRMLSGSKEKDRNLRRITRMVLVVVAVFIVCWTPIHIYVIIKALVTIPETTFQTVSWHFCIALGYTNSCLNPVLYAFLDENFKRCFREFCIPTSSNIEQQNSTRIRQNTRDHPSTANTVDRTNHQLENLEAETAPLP

Serotonin 5-HT4 = Serotonin 5-HT4 (Homo sapiens, UniProt Q13639); assay: Off target activity panel; format: binding; settings: read-out: Inhibition at test concentration (%)
human TRPV1 receptor = human TRPV1 receptor (Homo sapiens, UniProt Q8NER1); assay: Blockade of human TRPV1 receptor
human TRPV1 receptor, sequence (Q8NER1 whole entry): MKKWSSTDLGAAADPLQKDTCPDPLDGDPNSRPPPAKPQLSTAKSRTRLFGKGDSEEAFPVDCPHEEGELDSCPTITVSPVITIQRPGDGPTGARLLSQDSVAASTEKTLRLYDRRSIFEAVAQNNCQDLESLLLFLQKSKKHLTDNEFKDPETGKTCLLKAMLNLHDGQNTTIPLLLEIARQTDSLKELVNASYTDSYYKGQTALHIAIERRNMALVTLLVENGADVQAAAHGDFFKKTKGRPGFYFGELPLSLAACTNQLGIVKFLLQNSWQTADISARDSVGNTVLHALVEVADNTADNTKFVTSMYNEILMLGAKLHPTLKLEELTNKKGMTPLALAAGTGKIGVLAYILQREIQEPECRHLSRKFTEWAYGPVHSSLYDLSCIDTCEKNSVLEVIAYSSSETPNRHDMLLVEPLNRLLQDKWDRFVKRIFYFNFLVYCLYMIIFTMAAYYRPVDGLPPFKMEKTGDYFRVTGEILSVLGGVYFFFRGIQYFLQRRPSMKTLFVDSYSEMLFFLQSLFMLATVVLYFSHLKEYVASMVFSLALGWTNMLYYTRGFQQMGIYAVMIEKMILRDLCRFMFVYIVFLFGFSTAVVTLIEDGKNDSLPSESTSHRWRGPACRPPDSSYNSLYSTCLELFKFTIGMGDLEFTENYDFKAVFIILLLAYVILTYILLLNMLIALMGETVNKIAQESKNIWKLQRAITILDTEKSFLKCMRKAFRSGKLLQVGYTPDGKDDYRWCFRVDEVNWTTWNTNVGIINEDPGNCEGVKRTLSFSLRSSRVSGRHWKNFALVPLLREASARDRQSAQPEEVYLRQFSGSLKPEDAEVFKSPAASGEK

Delta opioid receptor = Delta opioid receptor (Homo sapiens, UniProt P41143); assay: Off target activity panel; format: binding; settings: read-out: Inhibition at test concentration (%)
Adenosine A3 receptor = Adenosine A3 receptor (Homo sapiens, UniProt P0DMS8); assay: Off target activity panel; format: binding; settings: read-out: Inhibition at test concentration (%)
Cyclooxygenase 1 = Cyclooxygenase 1 (Homo sapiens, UniProt P23219); assay: Off target activity panel; format: biochemical; settings: read-out: Inhibition at test concentration (%)
Cannabinoid receptor 2 = Cannabinoid receptor 2 (Homo sapiens, UniProt P34972); assay: Off target activity panel; format: binding; settings: read-out: Inhibition at test concentration (%)
GABA Benzodiazepine site = assay: Off target activity panel; format: binding; settings: 10 µM
GABAA channel = assay: Off target activity panel; format: binding; settings: 10 µM
Cannabinoid receptor 1 = Cannabinoid receptor 1 (Homo sapiens, UniProt P21554); assay: Off target activity panel; format: binding; settings: read-out: Inhibition at test concentration (%)
[6] = Off target activity panel; format: binding; settings: read-out: Inhibition at test concentration (%)
Dopamine D4 receptor = Dopamine D4 receptor (Homo sapiens, UniProt P21917); assay: Off target activity panel; format: binding; settings: read-out: Inhibition at test concentration (%)
Serotonin 5-HT2C [7] = biological target: T1, Serotonin 5-HT2C; assay: Off target activity panel (second 5-HT2C line); format: binding; settings: read-out: Inhibition at test concentration (%)
[8] = system: human DRG neurons (hDRG neurons); assay: Current clamp of action potentials in human DRG neurons; format: cell-based
[9] = biological target: Adrenergic alpha 2A receptor (Homo sapiens, UniProt P08913); assay: Off target activity panel; format: binding; settings: read-out: Inhibition at test concentration (%)
[10] = system: cynomolgus TRPV1 receptor; assay: Blockade of cynomolgus TRPV1 receptor; settings: tested concentrations up to 10 μM
Monoamine oxidase A = Monoamine oxidase A (Homo sapiens, UniProt P21397); assay: Off target activity panel; format: biochemical; settings: read-out: Inhibition at test concentration (%)
Serotonin 5-HT3 = Serotonin 5-HT3 (Homo sapiens, UniProt P46098); assay: Off target activity panel; format: binding; settings: read-out: Inhibition at test concentration (%)
Muscarinic M3 receptor = Muscarinic M3 receptor (Homo sapiens, UniProt P20309); assay: Off target activity panel; format: binding; settings: read-out: Inhibition at test concentration (%)
Serotonin 5-HT6 = Serotonin 5-HT6 (Homo sapiens, UniProt P50406); assay: Off target activity panel; format: binding; settings: read-out: Inhibition at test concentration (%)
Somatostatin receptor 4 = Somatostatin receptor 4 (Homo sapiens, UniProt P31391); assay: Off target activity panel; format: binding; settings: read-out: Inhibition at test concentration (%)
Serotinin 5-HT2B = Serotinin 5-HT2B (Homo sapiens, UniProt P41595); assay: Off target activity panel; format: binding; settings: read-out: Inhibition at test concentration (%)
[11] = biological target: Norepinephrine transporter (Homo sapiens, UniProt P23975); assay: Off target activity panel; format: binding; settings: read-out: Inhibition at test concentration (%)
[12] = biological target: Cholycystokinin 2 (CCKB) receptor (Homo sapiens, UniProt P32239); assay: Off target activity panel; format: binding; settings: read-out: Inhibition at test concentration (%)
Melanocortin 4 receptor = Melanocortin 4 receptor (Homo sapiens, UniProt P32245); assay: Off target activity panel; format: binding; settings: read-out: Inhibition at test concentration (%)
Carbonic anhydrase II = Carbonic anhydrase II (Homo sapiens, UniProt P00918); assay: Off target activity panel; format: biochemical; settings: read-out: Inhibition at test concentration (%)
[13] = system: Nictotinic acetylcholine receptor; assay: Off target activity panel; format: binding; settings: 10 µM
[14] = system: Adrenergic alpha 1 receptor; assay: Off target activity panel; format: binding; settings: 10 µM
PDE6 = assay: Off target activity panel; format: biochemical; settings: 10 µM
FLT-1 kinase = FLT-1 kinase (Homo sapiens, UniProt P17948); assay: Off target activity panel; format: biochemical; settings: read-out: Inhibition at test concentration (%)
FLT-1 kinase, sequence (P17948 27-1338): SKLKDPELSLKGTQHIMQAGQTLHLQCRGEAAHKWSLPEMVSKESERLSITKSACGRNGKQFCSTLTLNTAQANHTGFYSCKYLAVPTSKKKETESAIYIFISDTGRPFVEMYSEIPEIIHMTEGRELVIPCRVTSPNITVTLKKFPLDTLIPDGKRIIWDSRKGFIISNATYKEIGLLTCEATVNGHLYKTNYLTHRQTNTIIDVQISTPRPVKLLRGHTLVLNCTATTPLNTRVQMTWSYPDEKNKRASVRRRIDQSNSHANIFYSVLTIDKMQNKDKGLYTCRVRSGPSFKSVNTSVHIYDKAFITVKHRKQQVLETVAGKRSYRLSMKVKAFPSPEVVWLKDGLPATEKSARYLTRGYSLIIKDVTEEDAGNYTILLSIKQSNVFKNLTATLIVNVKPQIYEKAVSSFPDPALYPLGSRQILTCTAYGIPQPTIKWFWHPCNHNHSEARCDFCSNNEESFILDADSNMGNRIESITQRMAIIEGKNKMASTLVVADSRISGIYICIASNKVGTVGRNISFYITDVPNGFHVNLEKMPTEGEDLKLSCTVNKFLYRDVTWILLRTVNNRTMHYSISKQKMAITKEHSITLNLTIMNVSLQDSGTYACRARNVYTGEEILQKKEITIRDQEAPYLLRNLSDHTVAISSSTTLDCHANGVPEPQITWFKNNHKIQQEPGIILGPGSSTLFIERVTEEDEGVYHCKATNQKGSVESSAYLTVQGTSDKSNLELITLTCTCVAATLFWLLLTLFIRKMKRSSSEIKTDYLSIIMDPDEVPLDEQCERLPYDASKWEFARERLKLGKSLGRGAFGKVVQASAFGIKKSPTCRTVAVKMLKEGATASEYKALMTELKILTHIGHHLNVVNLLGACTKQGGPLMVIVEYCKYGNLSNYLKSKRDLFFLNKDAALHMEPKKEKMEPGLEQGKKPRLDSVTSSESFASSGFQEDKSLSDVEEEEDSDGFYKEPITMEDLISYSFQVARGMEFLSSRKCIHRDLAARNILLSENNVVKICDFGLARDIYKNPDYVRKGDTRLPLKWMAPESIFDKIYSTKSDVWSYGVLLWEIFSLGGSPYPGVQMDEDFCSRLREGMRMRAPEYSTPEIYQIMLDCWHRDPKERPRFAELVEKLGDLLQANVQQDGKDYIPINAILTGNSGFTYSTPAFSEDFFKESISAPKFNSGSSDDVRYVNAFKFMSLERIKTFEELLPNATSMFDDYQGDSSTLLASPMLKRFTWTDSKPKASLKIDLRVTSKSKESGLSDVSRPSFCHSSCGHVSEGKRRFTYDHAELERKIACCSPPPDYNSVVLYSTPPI

Matrix metalloprotease 9 = Matrix metalloprotease 9 (Homo sapiens, UniProt P14780); assay: Off target activity panel; format: biochemical; settings: read-out: Inhibition at test concentration (%)
Matrix metalloprotease 9, sequence (P14780 94-707): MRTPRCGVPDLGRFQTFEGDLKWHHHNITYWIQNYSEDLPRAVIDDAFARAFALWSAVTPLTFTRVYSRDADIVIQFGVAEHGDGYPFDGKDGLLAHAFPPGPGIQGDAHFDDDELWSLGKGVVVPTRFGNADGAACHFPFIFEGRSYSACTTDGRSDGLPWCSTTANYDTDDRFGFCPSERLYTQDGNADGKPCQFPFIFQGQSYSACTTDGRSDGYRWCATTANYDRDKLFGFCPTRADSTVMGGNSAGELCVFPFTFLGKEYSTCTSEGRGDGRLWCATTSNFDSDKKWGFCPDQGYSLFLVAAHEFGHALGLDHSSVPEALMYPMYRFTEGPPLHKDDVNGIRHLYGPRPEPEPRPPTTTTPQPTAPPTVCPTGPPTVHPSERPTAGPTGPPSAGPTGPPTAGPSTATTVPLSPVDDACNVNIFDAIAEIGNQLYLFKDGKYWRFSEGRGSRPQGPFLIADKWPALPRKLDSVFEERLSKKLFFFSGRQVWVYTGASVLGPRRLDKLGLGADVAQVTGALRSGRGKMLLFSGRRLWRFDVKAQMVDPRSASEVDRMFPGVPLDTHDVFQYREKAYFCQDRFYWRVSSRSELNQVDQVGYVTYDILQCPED

p38alpha kinase = p38alpha kinase (Homo sapiens, UniProt Q16539); assay: Off target activity panel; format: biochemical; settings: read-out: Inhibition at test concentration (%)
p38alpha kinase, sequence (Q16539 whole entry): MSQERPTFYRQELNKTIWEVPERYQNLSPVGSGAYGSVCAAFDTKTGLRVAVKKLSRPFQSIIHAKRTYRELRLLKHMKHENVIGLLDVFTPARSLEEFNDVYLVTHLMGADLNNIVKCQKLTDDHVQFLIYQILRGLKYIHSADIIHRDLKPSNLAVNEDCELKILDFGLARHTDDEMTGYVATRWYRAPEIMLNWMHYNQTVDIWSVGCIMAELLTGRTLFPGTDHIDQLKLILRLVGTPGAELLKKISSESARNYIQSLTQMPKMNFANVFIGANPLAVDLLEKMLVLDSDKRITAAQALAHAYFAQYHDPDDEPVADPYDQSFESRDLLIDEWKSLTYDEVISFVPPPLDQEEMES

[15] = system: Calcium channel L-type (verapamil site); assay: Off target activity panel; format: binding; settings: 10 µM
Kappa opioid receptor = Kappa opioid receptor (Homo sapiens, UniProt P41145); assay: Off target panel, functional activity (agonist/antagonist); format: biochemical; settings: at 10 µM
[16] = system: Calcium channel L-type (dihydropyridine site); assay: Off target activity panel; format: binding; settings: 10 µM

Nc1[nH]ncc1-c1cc(Cl)ccc1Oc1cc(F)c(S(=O)(=O)Nc2cscn2)cc1Cl [PF-05089771, 4-[2-(5-amino-1H-pyrazol-4-yl)-4-chlorophenoxy]-5-chloro-2-fluoro-N-(1,3-thiazol-4-yl)benzenesulfonamide]
inhibition at 10 µM [1]: 0%
inhibition at 10 µM (Histamine H1 receptor): 12%
Inhibition at test concentration (%) ([2]; 10 µM): 54%
Ki ([2]; Cloride channel (GABA-gated)): 8.3 µM
inhibition at 10 µM (Dopamine D1 receptor): 0%
inhibition at 10 µM (Serotonin 5-HT1B): 6%
IC50 (hERG potassium channels): 10 µM
inhibition at 10 µM [3]: -4%
inhibition at 10 µM (Serotonin 5-HT2C [4]): -4%
Block of TTX-S current ([5]; 30 nM, in presence of A-803467): 75.5 ± 10.5%
Block of TTX-S current ([5]; 100 nM): complete block
IC50 ([5]; DRG neuron, read-out: IC50 for TTX-S current block): 0.0084 ± 0.0012 µM
inhibition at 10 µM (Mu opiod receptor): 7%
inhibition at 10 µM (Serotonin 5-HT4): -7%
Functional activity (human TRPV1 receptor; at 20 µM, TRPV1): No agonist or antagonist activity at 20 µM
Blockade of human TRPV1 receptor (human TRPV1 receptor; tested concentrations up to 20 μM): No blockade
inhibition at 10 µM (Delta opioid receptor): 15%
inhibition at 10 µM (Adenosine A3 receptor): 4%
inhibition at 10 µM (Cyclooxygenase 1): 18%
inhibition at 10 µM (Cannabinoid receptor 2): -5%
Inhibition at test concentration (%) (GABA Benzodiazepine site): 5%
Inhibition at test concentration (%) (GABAA channel): 41%
inhibition at 10 µM (Cannabinoid receptor 1): 0%
inhibition at 10 µM [6]: 64%
inhibition at 10 µM (Dopamine D4 receptor): 5%
inhibition at 10 µM (Serotonin 5-HT2C [7]): 4%
Neurons with action potential block ([8]; 30 nM): 3 out of 7 and 3/7
Neurons with action potential failure ([8]; 100 nM): 5 out of 8 and 5/8
inhibition at 10 µM [9]: 10%
Blockade of cynomolgus TRPV1 receptor [10]: No blockade
inhibition at 10 µM (Monoamine oxidase A): -13%
inhibition at 10 µM (Serotonin 5-HT3): 4%
inhibition at 10 µM (Muscarinic M3 receptor): 16%
inhibition at 10 µM (Serotonin 5-HT6): 2%
inhibition at 10 µM (Somatostatin receptor 4): 5%
inhibition at 10 µM (Serotinin 5-HT2B): -6%
inhibition at 10 µM [11]: 27%
inhibition at 10 µM [12]: 13%
inhibition at 10 µM (Melanocortin 4 receptor): -11%
inhibition at 10 µM (Carbonic anhydrase II): 21%
Inhibition at test concentration (%) [13]: -7%
Inhibition at test concentration (%) [14]: -5%
Inhibition at test concentration (%) (PDE6): 7%
inhibition at 10 µM (FLT-1 kinase): 14%
inhibition at 10 µM (Matrix metalloprotease 9): -3%
inhibition at 10 µM (p38alpha kinase): 8%
Inhibition at test concentration (%) [15]: -6%
Functional activity (Kappa opioid receptor): no agonist or antagonist activity at 10 µM
Inhibition at test concentration (%) [16]: 4%
